Measurements reported in patent publication US20120215126A1, “DETERMINING DYNAMIC AIRWAY RESPONSE IN A SUBJECT” (priority 2009, published 2012).

System: subject's respiratory system
Assay: acoustic transmission (transfer function magnitude) monitoring of a subject's broncho-dynamic response
Type: in vivo
Settings: FIG. 11, subject with exacerbation of asthma; combined treatment with Salbutamol and Ipratropium Bromide, treatment and recovery phase
Method: This involves introducing a sound signal having known characteristics into the airway of a subject in a step 101. The signal propagates through the lung and chest tissues to the chest wall and is detected in steps 102, 105 using one or more transducers attached to the subject at one or more locations on the thoracic surface. Preferably, baseline acoustic transmission is determined in a step 103. In a step 106, changes in the detected signal are monitored during and after administration of a broncho-effector (step 104). These changes are indicative the subject's airway response (i.e. changes in airway patency due do constriction, dilation or mucus production). The test is terminated in step 107. […] By positioning the reference transducer here, the transfer function calculated by processor 205 represents the acoustic transmission of subject's respiratory system including the lower airways, alveolar sacs, thoracic tissues etc., but excludes the effects of the apparatus used to introduce the sound (e.g. loudspeaker, tubing) and the upper airways. […] The introduced sound signal is transmitted through the subject's airways, lung parenchyma and chest wall tissues such as muscle, ribs, skin etc. and in a step 102, is detected at one or more locations on the thoracic surface. […]

Row | SMILES | airway patency
1 | CC(C)[N+]1(C)[C@@H]2CC[C@H]1CC(OC(=O)C(CO)c1ccccc1)C2.[Br-] (some centres unmarked) [Ipratropium Bromide] | gradual improvement
2 | CC(C)(C)NCC(O)c1ccc(O)c(CO)c1 (centres unmarked) [Salbutamol] | gradual improvement
